In US20230285570A1, “THERAPEUTICALLY USEFUL CURE-PRO MOLECULES FOR E3 LIGASE MEDIATED DEGRADATION OF PROTEINS, AND METHODS OF MAKING AND USING THEM” (CORNELL UNIVERSITY, priority 2020, published 2023):
Entries after “also recorded” stand apart in the source; their conditions may differ.

What was measured:
Format in all cases: cell-based
BRD4 [1] = target: T1, BRD4 (Homo sapiens, UniProt O60885); test: CURE-PRO-mediated BRD4 degradation in HCT116 cells, WES (ProteinSimple); design: endogenous in cells; conditions: 1 μM-10 μM each
Method: All cell lines were purchased from ATCC or DSMZ and grown at 37° C. with 5% CO2. Human HeLa cells were cultured in complete growth medium (Dulbecco's modified Eagle's medium (DMEM) supplemented with 10% FBS); MCF7 cells were cultured in complete growth medium (Dulbecco's modified Eagle's medium (DMEM) supplemented with 10% FBS and 0.01 mg/ml human recombinant insulin (Sigma Aldrich); Namalwa and Ramos cells were cultured in complete growth medium (RPMI 1640 medium supplemented with 10% FBS); HCT116 and HT29 cells were cultured in complete growth medium (McCoy's 5a Medium supplemented with 10% FBS). For cellular degradation of BRD4 studies cells were seeded in a 12-well plate at 70-80% confluency, allowed to attach overnight, and incubated with the indicated compounds for the indicated time. When indicated, a 15-minute pretreatment with 10 μM pomalidomide, 10 μM VHL298, 10 μM Nutlin3a, 1 μM MG-132 or 1 μM Carfilzomib was performed before the addition of CURE-PROs. For washout studies, after CURE-PRO treatment, media was aspirated and incubated with complete medium for the indicated time before lysis.
WES Simple analysis was performed on WES system (ProteinSimple-Biotechne) according to the manufacturer's instructions. Total protein concentrations of cell lysates were determined by the Pierce BCA kit (Thermo Fisher). 3 μL of 0.3 μg/μL of the protein lysate was loaded onto a 12- to 230-kDa WES assay plate (ProteinSimple) where 300 nL sample was withdrawn through a capillary, subjected to electrophoretic separation of proteins by size, and followed by the simultaneous, HRP-based detection of proteins using the Anti-Rabbit Detection Module (Proteinsimple: #DM-001). The electropherograms were checked then the automatic peak detection was manually corrected if it was required.
(§1) HCT116 cells (3×10^6) were treated for 24 hours with the compounds solubilized in DMSO. Compounds were added at 1 μM-10 μM each. Standardized protein samples were electrophoresed and imaged as described in the WES ProteinSimple section above. FIGS. 59, 60, and 61 depict the concentration-dependence of CURE-PRO-mediated BRD4 degradation using MDM2 ligands.
as §1, with “62” for “59, 60,”, “63” for “61”
HCT116 cells (3×10^6) were treated for 24 hours with the compounds solubilized in DMSO. CURE-PRO monomers were added at 10 μM each and the proteasomal inhibitors at 1 μM. Standardized protein samples were electrophoresed and imaged as described in the WES ProteinSimple section above. FIG. 68 depicts the dependence of the proteasome for CURE-PRO-mediated BRD4 degradation.

BRD4 [2] = target: T1, BRD4; test: Summary of BRD4 degradation by CURE-PRO pairs, estimated from Western Blot or WES; design: endogenous in cells; conditions: for Degradation of BRD4, combination with CRBN ligand 8047: Table 1, aryl-boronic acid BRD4 ligand + 8047; for Degradation of BRD4, combination with MDM2 ligand 8314: Table 2, aryl-boronic acid BRD4 ligand + 8314; for Degradation of BRD4, combination with VHL ligand 8305: Table 3, aryl-boronic acid BRD4 ligand + 8305; for Degradation of BRD4, combination with CRBN ligand 8046: Table 1, aryl-boronic acid BRD4 ligand + 8046; for Degradation of BRD4, combination with CRBN ligand 8066: Table 1, aryl-boronic acid BRD4 ligand + 8066
Summary of the method: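 Degradation read-out from immunoblot with ECL, or WES capillary electrophoresis with HRP detection, of RIPA lysates. Cells (Namalwa, Ramos, HeLa, MCF7, HT29 or HCT116) were exposed to DMSO-solubilized compounds for 24 h; a check mark marks 30% to 70% or higher degradation.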

BRD4 [3] = target: T1, BRD4; test: CURE-PRO-mediated BRD4 degradation in HeLa cells, Western blot; design: endogenous in cells; host or cells: HeLa; conditions: 24 h; for BRD4 degradation: 10 μM each; for BRD4 expression: BRD monomer alone, HeLa, 1 nM-1 μM
Summary of the method: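 HeLa cells (2.5×10^6) treated 24 h with DMSO-solubilized compounds, degrader pairs combined 1:1, at 1 nM-1 μM, 1-10 μM, 10 μM or 10 and 100 μM each depending on series. RIPA lysates (10-20 μg protein) run on SDS-PAGE and immunoblotted for BRD4 with ECL detection.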

MV-4-11 cells = test: CellTiter-Glo cell viability, MV-4-11 cells; conditions: for loss of cellular viability (toxicity) versus monomers alone: cotreated 1:1 with each of CRBN ligands 8046, 8047 and 8066, MV-4-11, 72 h, 10 nM-100 μM
Method: CellTiter-Glo® 2.0 Cell Viability Assay (Promega) was carried out following the manufacturer's recommendations. Cells were seeded at a density of 1000 cells/well in a white 96 well plates (Corning, #3917) in a total volume of 100 μl with respective monomers, combinations of BRD ligands together with E3 ligase ligands or vehicle control treatment. After a 72 h incubation, 100 ul of the CellTiter-Glo® substrate was added per well and luminescence was read on a Spectramax M5 (Molecular Devices). Dose-response curves were generated using Graphpad Prism software.
MV-4-11 cells (5×10^4) were treated for 24 hours with the sample compounds solubilized in DMSO. The compounds were added at 1 nM-100 μM each. Cellular viability was determined using the CellTiter-Glo® Luminescent Cell Viability Assay (Promega) described above. FIGS. 19-22 depict the CURE-PRO-mediated loss of cellular viability for BRD monomers (JQ1 derivatives comprising of catechol linkers), and CRBN ligand, 8049 (pomalidomide derivatives comprising boronic acid linkers) combined in a 1:1 ratio.
MV-4-11 cells (1×10^4) were treated for 72 hours with the compounds solubilized in DMSO. Compounds were added at 10 nM-100 μM each. Cellular viability was determined using the CellTiter-Glo® Luminescent Cell Viability Assay (Promega) described above. FIGS. 47-54 depict the CURE-PRO-mediated loss of cellular viability for BRD monomers (JQ1 derivatives comprising of boronic acid linkers), and CRBN ligands, 8046, 8047 and 8066 (pomalidomide derivatives comprising diol linkers) combined in a 1:1 ratio.

[4] = 1:1 with MDM2 ligand 8313, HCT116, 24 h
[5] = 1:1 with MDM2 ligand 8314, HCT116, 24 h
[6] = co-treated 1:1 with CRBN ligand 8046, HeLa
[7] = co-treated 1:1 with CRBN ligand 8066, HeLa

Row | SMILES | BRD4 degradation (BRD4 [1]; [4]) | BRD4 degradation (BRD4 [1]; [5]) | Degradation of BRD4, combination with CRBN ligand 8047 (BRD4 [2]) | Degradation of BRD4, combination with MDM2 ligand 8314 (BRD4 [2]) | loss of cellular viability (toxicity) versus monomers alone (MV-4-11 cells) | also measured
1 | COc1ccc2c(c1)C(c1ccc(Cl)cc1)=N[C@@H](CC(=O)NCCc1ccc(B(O)O)cc1)c1nnc(C)n1-2 [BRD-E14, (4-(2-(2-((4S)-6-(4-chlorophenyl)-8-methoxy-1-methyl-4H-benzo[f][1,2,4]triazolo[4,3-a][1,4]diazepin-4-yl)acetamido)ethyl)phenyl)boronic acid] | had no effect on BRD4 protein levels | caused partial loss of the BRD4 protein; also recorded: Degradation is observed | √ (A black check mark indicates efficacy of 30% to 70% or higher protein degradation) | √ (A black check mark indicates efficacy of 30% to 70% or higher protein degradation) |  | Degradation of BRD4, combination with VHL ligand 8305 (BRD4 [2]): √ (A black check mark indicates efficacy of 30% to 70% or higher protein degradation); BRD4 degradation (BRD4 [3]; co-treated 1:1 with CRBN ligand 8047, HeLa): causes degradation of BRD4; also recorded: Degradation is noted
2 | CCNC(=O)C[C@@H]1N=C(c2ccc(Cl)cc2)c2cc(OCCNC(=O)c3cccc(B(O)O)c3)ccc2-n2c(C)nnc21 [BRD-E21, (3-((2-(((4S)-6-(4-chlorophenyl)-4-(2-(ethylamino)-2-oxoethyl)-1-methyl-4H-benzo[f][1,2,4]triazolo[4,3-a][1,4]diazepin-8-yl)oxy)ethyl)carbamoyl)phenyl)boronic acid] | had no effect on BRD4 protein levels | caused partial loss of the BRD4 protein; also recorded: Degradation is observed | √ (A black check mark indicates efficacy of 30% to 70% or higher protein degradation) | √ (A black check mark indicates efficacy of 30% to 70% or higher protein degradation) |  | concentration from which BRD4 degradation is observed (BRD4 [3]; 1:1 with CRBN ligand 8047, HeLa, 1 nM-1 μM each): ≥ 10 nM; BRD4 expression (BRD4 [3]): no change in expression is observed
3 | CCNC(=O)C[C@@H]1N=C(c2ccc(Cl)cc2)c2cc(OCCCCCCNC(=O)c3ccc(B(O)O)cc3)ccc2-n2c(C)nnc21 [BRD-E79, (4-((6-(((4S)-6-(4-chlorophenyl)-4-(2-(ethylamino)-2-oxoethyl)-1-methyl-4H-benzo[f][1,2,4]triazolo[4,3-a][1,4]diazepin-8-yl)oxy)hexyl)carbamoyl)phenyl)boronic acid] | caused BRD4 protein degradation at 1 and 10 μM; also recorded: Degradation of BRD4 is observed | no protein loss was observed | √ (A black check mark indicates efficacy of 30% to 70% or higher protein degradation) |  |  | Degradation of BRD4, combination with CRBN ligand 8046 (BRD4 [2]): √ (A black check mark indicates efficacy of 30% to 70% or higher protein degradation); Degradation of BRD4, combination with CRBN ligand 8066 (BRD4 [2]): √ (A black check mark indicates efficacy of 30% to 70% or higher protein degradation); Degradation of BRD4, combination with MDM2 ligand 8313 (BRD4 [2]; Table 2, aryl-boronic acid BRD4 ligand + 8313): √ (A black check mark indicates efficacy of 30% to 70% or higher protein degradation); BRD4 degradation (BRD4 [3]; [6]): causes degradation of BRD4; also recorded: Degradation is noted; BRD4 degradation (BRD4 [3]; [7]): causes degradation of BRD4; also recorded: Degradation is noted
4 | COc1ccc2c(c1)C(c1ccc(Cl)cc1)=N[C@@H](CC(=O)Nc1cccc(B(O)O)c1)c1nnc(C)n1-2 [BRD-E73, (3-(2-((4S)-6-(4-chlorophenyl)-8-methoxy-1-methyl-4H-benzo[f][1,2,4]triazolo[4,3-a][1,4]diazepin-4-yl)acetamido)phenyl)boronic acid] |  |  |  |  | reduced viability; also recorded: increased toxicity | 
5 | COc1ccc2c(c1)C(c1ccc(Cl)cc1)=N[C@@H](CC(=O)NCCCCCNC(=O)c1cccc(B(O)O)c1)c1nnc(C)n1-2 [BRD-E8] | had no effect on BRD4 protein levels | caused partial loss of the BRD4 protein; also recorded: Degradation is observed |  | √ (A black check mark indicates efficacy of 30% to 70% or higher protein degradation) |  | Degradation of BRD4, combination with CRBN ligand 8046 (BRD4 [2]): √ (A black check mark indicates efficacy of 30% to 70% or higher protein degradation); Degradation of BRD4, combination with CRBN ligand 8066 (BRD4 [2]): √ (A black check mark indicates efficacy of 30% to 70% or higher protein degradation); concentration-dependent BRD4 degradation (BRD4 [3]; 1:1 with CRBN ligand 8046, HeLa, 1 nM-1 μM each): Degradation is observed at 100 nM and 1 μM; BRD4 expression (BRD4 [3]): no change in expression is observed; BRD4 degradation (BRD4 [3]; [6]): causes degradation of BRD4; also recorded: Degradation is noted; BRD4 degradation (BRD4 [3]; [7]): causes degradation of BRD4; also recorded: Degradation is noted
6 | COc1ccc2c(c1)C(c1ccc(Cl)cc1)=N[C@@H](CC(=O)NCCCCCNC(=O)c1cccc(O)c1O)c1nnc(C)n1-2 [BRD-N8, N-(5-(2-((4S)-6-(4-chlorophenyl)-8-methoxy-1-methyl-4H-benzo[f][1,2,4]triazolo[4,3-a][1,4]diazepin-4-yl)acetamido)pentyl)-2,3-dihydroxybenzamide] |  |  |  |  |  | loss of cellular viability (toxicity) (MV-4-11 cells; co-dosed 1:1 with CRBN ligand 8049, MV-4-11, 24 h, 1 nM-100 μM each): concentration-dependent loss in cellular viability; also recorded: increased toxicity
7 | CCNC(=O)C[C@@H]1N=C(c2ccc(Cl)cc2)c2cc(OCCCCCCCNC(=O)c3ccc(B(O)O)cc3)ccc2-n2c(C)nnc21 [BRD-E78] |  |  |  |  | reduced viability; also recorded: increased toxicity | Degradation of BRD4, combination with VHL ligand 8305 (BRD4 [2]): √ (A black check mark indicates efficacy of 30% to 70% or higher protein degradation)
8 | CCNC(=O)C[C@@H]1N=C(c2ccc(Cl)cc2)c2cc(Sc3ccc(B(O)O)cc3)ccc2-n2c(C)nnc21 [BRD-E75, (4-(((4S)-6-(4-chlorophenyl)-4-(2-(ethylamino)-2-oxoethyl)-1-methyl-4H-benzo[f][1,2,4]triazolo[4,3-a][1,4]diazepin-8-yl)thio)phenyl)boronic acid] |  |  |  | √ (A black check mark indicates efficacy of 30% to 70% or higher protein degradation) | reduced viability; also recorded: increased toxicity | 
